Measured values published in US12534457B2, “Heteroaryl derivative compounds, and uses thereof” (Voronoi Inc., priority 2021, dated 2026).
Blank lines part the entries; values can stand above or below the molecule they belong to.

Legend:
EGFR (D761Y) = target: T1, EGFR (D761Y) (Homo sapiens, UniProt P00533, D761Y); assay: EGFR-family mutant enzyme activity (Reaction Biology); format: biochemical
T1 construct: purchased Reaction Biology

ERBB2/HER2 = target: T2, ERBB2/HER2 (Homo sapiens, UniProt P04626); assay: as above; format: biochemical
T2 construct: purchased Reaction Biology
T2 sequence (P04626 23-1255): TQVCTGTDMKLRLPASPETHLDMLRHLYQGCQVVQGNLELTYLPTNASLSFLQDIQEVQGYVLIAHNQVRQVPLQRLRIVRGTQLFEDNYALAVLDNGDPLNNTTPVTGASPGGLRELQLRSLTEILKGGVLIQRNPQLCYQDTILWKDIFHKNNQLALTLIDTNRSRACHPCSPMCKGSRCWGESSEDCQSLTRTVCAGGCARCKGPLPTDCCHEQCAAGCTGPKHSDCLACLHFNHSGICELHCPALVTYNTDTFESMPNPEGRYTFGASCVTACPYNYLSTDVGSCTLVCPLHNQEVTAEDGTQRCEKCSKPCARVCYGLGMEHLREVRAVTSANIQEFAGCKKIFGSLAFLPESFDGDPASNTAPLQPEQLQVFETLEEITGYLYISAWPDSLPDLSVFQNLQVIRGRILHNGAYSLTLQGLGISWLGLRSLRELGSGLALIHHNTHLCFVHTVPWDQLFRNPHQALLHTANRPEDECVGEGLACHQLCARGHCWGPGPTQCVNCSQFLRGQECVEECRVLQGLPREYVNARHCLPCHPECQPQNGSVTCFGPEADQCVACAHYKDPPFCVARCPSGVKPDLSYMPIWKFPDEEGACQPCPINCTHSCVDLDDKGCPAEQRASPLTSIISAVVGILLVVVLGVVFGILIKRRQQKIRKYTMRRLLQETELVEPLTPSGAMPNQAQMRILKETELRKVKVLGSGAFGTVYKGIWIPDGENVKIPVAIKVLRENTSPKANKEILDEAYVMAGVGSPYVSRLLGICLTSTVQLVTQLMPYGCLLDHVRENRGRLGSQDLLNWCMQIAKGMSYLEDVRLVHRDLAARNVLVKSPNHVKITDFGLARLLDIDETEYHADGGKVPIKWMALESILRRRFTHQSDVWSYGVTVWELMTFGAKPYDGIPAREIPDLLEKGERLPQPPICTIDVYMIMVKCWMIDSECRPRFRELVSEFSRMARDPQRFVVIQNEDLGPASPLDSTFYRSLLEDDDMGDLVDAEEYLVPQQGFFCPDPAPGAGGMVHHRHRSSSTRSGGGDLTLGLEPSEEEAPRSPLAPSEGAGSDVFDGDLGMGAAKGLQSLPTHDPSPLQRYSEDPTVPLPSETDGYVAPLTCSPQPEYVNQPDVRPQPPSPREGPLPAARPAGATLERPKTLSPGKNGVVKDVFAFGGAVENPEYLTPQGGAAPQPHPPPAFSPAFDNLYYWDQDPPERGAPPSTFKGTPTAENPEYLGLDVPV

EGFR (d746-750) = target: T3, EGFR (d746-750) (Homo sapiens, UniProt P00533, DEL746-750); assay: as above; format: biochemical
T3 construct: purchased Reaction Biology

ERBB4/HER4 = target: T4, ERBB4/HER4 (Homo sapiens, UniProt Q15303); assay: as above; format: biochemical
T4 construct: purchased Reaction Biology

EGFR (G719D) = target: T5, EGFR (G719D) (Homo sapiens, UniProt P00533, G719D); assay: as above; format: biochemical
T5 construct: purchased Reaction Biology

EGFR (L718Q) = target: T6, EGFR (L718Q) (Homo sapiens, UniProt P00533, L718Q); assay: as above; format: biochemical
T6 construct: purchased Reaction Biology

EGFR (L747S) = target: T7, EGFR (L747S) (Homo sapiens, UniProt P00533, L747S); assay: as above; format: biochemical
T7 construct: purchased Reaction Biology

EGFR (L792F) = target: T8, EGFR (L792F) (Homo sapiens, UniProt P00533, L792F); assay: as above; format: biochemical
T8 construct: purchased Reaction Biology

EGFR (d746-750/C797S) = target: T9, EGFR (d746-750/C797S) (Homo sapiens, UniProt P00533, C797S/DEL746-750); assay: as above; format: biochemical
T9 construct: purchased Reaction Biology

EGFR (L861Q) = target: T10, EGFR (L861Q) (Homo sapiens, UniProt P00533, L861Q); assay: as above; format: biochemical
T10 construct: purchased Reaction Biology
T10 sequence (P00533 25-1210 L861Q): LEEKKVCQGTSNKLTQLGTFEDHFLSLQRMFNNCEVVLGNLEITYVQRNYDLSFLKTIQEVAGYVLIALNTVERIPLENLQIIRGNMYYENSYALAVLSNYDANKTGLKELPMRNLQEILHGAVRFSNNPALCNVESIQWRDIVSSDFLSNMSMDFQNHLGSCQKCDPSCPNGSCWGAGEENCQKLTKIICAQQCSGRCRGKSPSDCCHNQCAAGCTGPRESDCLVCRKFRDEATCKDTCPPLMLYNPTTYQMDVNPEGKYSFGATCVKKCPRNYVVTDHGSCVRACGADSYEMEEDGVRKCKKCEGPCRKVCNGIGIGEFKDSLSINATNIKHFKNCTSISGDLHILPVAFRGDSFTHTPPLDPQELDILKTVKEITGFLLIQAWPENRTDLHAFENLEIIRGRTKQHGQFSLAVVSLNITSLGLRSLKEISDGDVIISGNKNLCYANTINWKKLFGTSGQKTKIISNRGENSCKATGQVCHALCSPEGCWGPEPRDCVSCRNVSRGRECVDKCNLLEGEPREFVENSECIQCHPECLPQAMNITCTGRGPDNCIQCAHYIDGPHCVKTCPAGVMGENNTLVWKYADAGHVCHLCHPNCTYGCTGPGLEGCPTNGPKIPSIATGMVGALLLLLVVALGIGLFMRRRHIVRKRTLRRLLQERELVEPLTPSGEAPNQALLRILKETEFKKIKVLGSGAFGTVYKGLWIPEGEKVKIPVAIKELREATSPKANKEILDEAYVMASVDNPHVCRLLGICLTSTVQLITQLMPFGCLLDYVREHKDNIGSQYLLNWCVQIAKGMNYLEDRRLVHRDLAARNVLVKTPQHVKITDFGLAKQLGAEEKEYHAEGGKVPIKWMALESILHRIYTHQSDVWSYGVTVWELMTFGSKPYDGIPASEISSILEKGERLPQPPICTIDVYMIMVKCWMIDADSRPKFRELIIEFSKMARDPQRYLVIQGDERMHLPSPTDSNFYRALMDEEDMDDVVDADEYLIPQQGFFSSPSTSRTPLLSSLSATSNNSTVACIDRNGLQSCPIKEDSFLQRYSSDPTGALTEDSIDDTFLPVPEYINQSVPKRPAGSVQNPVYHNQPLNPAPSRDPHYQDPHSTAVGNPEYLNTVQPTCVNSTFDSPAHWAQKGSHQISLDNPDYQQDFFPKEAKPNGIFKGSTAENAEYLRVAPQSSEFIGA

[1] = system: Ba/F3 L861Q (EGFR mutation); assay: Proliferation inhibitory activity, Ba/F3 cells expressing EGFR L861Q; format: cell-based; conditions: Mus musculus, BaF3, 72 hours, CellTiter-Glo
Method: (§1) The following experiments were performed to evaluate the inhibitory activity of the compounds according to the present disclosure on Ba/F3 proliferation expressing EGFR C797S, L861Q, G719A, S768I, L718Q, and/or G724S mutations.
(§2) For Ba/F3 cells, RPMI-1640 containing 10% FBS and 5 ng/ml IL-3 (R&D Systems) was used. Transduced Ba/F3 cells were cultured after adding 1 μg/ml puromycin (Invitrogen) to the same medium.
(§3) At 24 hours before treatment with the compounds, 3000 to 5000 cells were aliquoted into each well of a white clear bottom 96 well plate (Corning). The compounds were diluted in dimethyl sulfoxide (3 times dilution, 12 concentrations in total), and injected in an amount of 1 μl so that the final concentration was 0.2 nM to 5 uM. For measurement of living cells, after 72 hours of compound treatment, the cells were stored at room temperature for 10 min using CellTiter-Glo luminescentcell-viability reagent (Promega), and then luminescence intensity was measured using a reader (SynergyNeo, Biotek). Each test was repeated three times. Result values were calculated as the cell growth rate (%) compared to the control. The graphs were created using GraphPad Prism version 8.3.0 program and the GI50 values were calculated.

EGFR (L792F/L858R) = target: T11, EGFR (L792F/L858R) (Homo sapiens, UniProt P00533, L792F/L858R); assay: EGFR-family mutant enzyme activity (Reaction Biology); format: biochemical
T11 construct: purchased Reaction Biology

[2] = system: Ba/F3 G724S (EGFR mutation); assay: Proliferation inhibitory activity, Ba/F3 cells expressing EGFR G724S; format: cell-based; conditions: Mus musculus, BaF3, 72 hours, CellTiter-Glo
Method: as §1, §2, §3

EGFR (G719S) = target: T12, EGFR (G719S) (Homo sapiens, UniProt P00533, G719S); assay: EGFR-family mutant enzyme activity (Reaction Biology); format: biochemical
T12 construct: purchased Reaction Biology

[3] = system: Ba/F3 L718Q (EGFR mutation); assay: Proliferation inhibitory activity, Ba/F3 cells expressing EGFR L718Q; format: cell-based; conditions: Mus musculus, BaF3, 72 hours, CellTiter-Glo
Method: as §1, §2, §3

[4] = target: T13, EGFR (d746-750/T790M/C797S) (Homo sapiens, UniProt P00533, C797S/DEL746-750/T790M); assay: EGFR-family mutant enzyme activity (Reaction Biology); format: biochemical
T13 construct: purchased Reaction Biology
T13 sequence (P00533 with tags, fused parts or gaps DEL746-750/T790M/C797S limits assumed): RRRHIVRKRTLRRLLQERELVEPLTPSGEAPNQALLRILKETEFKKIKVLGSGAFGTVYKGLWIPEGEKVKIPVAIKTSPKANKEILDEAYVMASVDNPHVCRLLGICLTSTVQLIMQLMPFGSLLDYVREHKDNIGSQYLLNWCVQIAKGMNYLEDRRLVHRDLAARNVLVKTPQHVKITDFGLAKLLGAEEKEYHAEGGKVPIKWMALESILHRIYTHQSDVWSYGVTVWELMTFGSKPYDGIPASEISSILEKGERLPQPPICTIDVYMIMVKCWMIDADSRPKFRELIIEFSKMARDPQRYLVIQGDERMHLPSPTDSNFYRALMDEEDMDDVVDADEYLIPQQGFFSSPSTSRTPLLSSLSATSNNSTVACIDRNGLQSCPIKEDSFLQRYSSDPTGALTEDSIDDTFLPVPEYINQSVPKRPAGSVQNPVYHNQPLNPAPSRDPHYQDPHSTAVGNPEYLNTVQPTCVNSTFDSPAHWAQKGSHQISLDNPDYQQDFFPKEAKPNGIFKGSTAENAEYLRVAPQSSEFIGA

EGFR (d746-750/C797A) = target: T14, EGFR (d746-750/C797A) (Homo sapiens, UniProt P00533, C797A/DEL746-750); assay: as above; format: biochemical
T14 construct: purchased Reaction Biology
T14 sequence (P00533 with tags, fused parts or gaps DEL746-750/C797A limits assumed): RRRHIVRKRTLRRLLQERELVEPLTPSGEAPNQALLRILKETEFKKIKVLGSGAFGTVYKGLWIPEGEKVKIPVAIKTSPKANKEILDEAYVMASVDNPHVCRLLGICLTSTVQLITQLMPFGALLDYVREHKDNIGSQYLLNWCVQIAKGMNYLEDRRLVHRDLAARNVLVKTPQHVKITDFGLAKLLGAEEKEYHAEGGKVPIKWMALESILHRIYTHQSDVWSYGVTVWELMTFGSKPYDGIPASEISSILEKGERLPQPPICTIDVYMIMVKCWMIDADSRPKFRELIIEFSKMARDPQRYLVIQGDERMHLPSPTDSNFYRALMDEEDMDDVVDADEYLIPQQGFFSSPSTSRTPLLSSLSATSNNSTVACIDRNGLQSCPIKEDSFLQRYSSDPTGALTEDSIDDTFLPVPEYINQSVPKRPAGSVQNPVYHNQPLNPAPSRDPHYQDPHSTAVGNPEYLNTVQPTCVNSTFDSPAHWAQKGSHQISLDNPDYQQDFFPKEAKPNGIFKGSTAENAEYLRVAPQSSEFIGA

[5] = system: Ba/F3 G719A (EGFR mutation); assay: Proliferation inhibitory activity, Ba/F3 cells expressing EGFR G719A; format: cell-based; conditions: Mus musculus, BaF3, 72 hours, CellTiter-Glo
Method: as §1, §2, §3

[6] = system: Ba/F3 cells expressing EGFR Del19/C797S (EGFR DC); assay: Proliferation inhibitory activity, Ba/F3 cells expressing EGFR Del19/C797S (CellTiter-Glo); format: cell-based; conditions: Mus musculus, BaF3, 72 hours of compound treatment
How it was run: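 Viability after 72 h of compound exposure was measured by luminescence (CellTiter-Glo) in Ba/F3 lines transduced with mutant EGFR. Final concentrations spanned 0.2 nM–5 μM over 12 threefold steps. Growth relative to untreated control gave GI50 values; each test was run three times.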

[7] = system: Ba/F3 S768I (EGFR mutation); assay: Proliferation inhibitory activity, Ba/F3 cells expressing EGFR S768I; format: cell-based; conditions: Mus musculus, BaF3, 72 hours, CellTiter-Glo
Method: as §1, §2, §3

EGFR (G719C) = target: T15, EGFR (G719C) (Homo sapiens, UniProt P00533, G719C); assay: EGFR-family mutant enzyme activity (Reaction Biology); format: biochemical
T15 construct: purchased Reaction Biology
T15 sequence (P00533 25-1210 G719C): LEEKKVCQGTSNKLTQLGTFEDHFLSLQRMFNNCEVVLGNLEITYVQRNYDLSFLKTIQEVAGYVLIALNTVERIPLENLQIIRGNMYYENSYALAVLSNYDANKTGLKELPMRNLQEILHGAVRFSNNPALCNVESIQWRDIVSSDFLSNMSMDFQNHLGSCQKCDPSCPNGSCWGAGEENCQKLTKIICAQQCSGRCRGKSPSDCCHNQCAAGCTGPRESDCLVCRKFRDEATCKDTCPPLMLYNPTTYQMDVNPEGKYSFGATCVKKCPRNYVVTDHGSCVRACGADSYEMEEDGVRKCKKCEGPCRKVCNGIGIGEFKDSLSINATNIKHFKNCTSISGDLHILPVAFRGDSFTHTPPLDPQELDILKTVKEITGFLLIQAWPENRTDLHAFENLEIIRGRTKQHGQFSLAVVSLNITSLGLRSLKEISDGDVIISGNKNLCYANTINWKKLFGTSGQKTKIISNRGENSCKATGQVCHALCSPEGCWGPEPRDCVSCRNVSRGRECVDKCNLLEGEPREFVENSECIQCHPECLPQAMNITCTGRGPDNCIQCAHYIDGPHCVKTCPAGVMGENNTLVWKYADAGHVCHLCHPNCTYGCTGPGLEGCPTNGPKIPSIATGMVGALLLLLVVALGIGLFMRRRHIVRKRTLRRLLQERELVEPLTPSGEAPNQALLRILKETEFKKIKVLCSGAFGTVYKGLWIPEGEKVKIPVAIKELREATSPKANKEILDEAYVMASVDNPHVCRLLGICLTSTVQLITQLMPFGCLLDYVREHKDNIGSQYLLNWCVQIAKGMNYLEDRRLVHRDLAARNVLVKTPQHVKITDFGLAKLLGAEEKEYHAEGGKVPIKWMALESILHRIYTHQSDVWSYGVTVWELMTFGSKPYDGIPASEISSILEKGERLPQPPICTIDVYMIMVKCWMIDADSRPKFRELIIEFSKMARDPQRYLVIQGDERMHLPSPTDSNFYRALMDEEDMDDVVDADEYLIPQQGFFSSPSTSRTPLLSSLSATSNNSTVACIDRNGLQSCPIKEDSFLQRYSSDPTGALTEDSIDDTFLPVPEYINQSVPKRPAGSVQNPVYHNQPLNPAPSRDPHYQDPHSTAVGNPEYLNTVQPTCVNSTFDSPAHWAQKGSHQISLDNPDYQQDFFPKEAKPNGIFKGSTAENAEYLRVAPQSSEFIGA

[8] = system: Ba/F3 cells expressing EGFR L858R/C797S (EGFR LC); assay: Proliferation inhibitory activity, Ba/F3 cells expressing EGFR L858R/C797S (CellTiter-Glo); format: cell-based; conditions: Mus musculus, BaF3, 72 hours of compound treatment
Method: as §1, §2, §3

IC50 (EGFR (D761Y)): < 0.5 nM
IC50 (ERBB2/HER2): 5.3 nM
IC50 (EGFR (d746-750)): 8 nM
IC50 (ERBB4/HER4): 41.7 nM
IC50 (EGFR (G719D)): < 0.5 nM
IC50 (EGFR (L718Q)): 49.8 nM
IC50 (EGFR (L747S)): < 0.5 nM
IC50 (EGFR (L792F)): 8.7 nM
IC50 (EGFR (d746-750/C797S)): < 0.5 nM
IC50 (EGFR (L861Q)): < 0.5 nM
GI50 [1]: 50 to 500 nM
IC50 (EGFR (L792F/L858R)): 78.1 nM
GI50 [2]: < 50 nM
IC50 (EGFR (G719S)): 2.7 nM
GI50 [3]: 50 to 500 nM
IC50 [4]: 60.5 nM
IC50 (EGFR (d746-750/C797A)): 3.5 nM
GI50 [5]: < 50 nM
GI50 [6]: < 50 nM
GI50 [7]: 50 to 500 nM
IC50 (EGFR (G719C)): 0.5 nM
Compound: COc1cc(N2CCC(N3CCN(C)CC3)CC2)ccc1Nc1cc(N2OCC[C@@H]2c2ccc(F)cc2F)ncn1 [Example 34, (R)-6-(3-(2,4-difluorophenyl)isoxazolidin-2-yl)-N-(2-methoxy-4-(4-(4-methylpiperazin-1-yl)piperidin-1-yl)phenyl)pyrimidin-4-amine]

GI50 [8]: < 50 nM
GI50 [6]: < 50 nM
Compound: CN1CCN(c2cc(Nc3cc(N4OCC[C@@H]4c4cc(F)cc(F)c4)ncn3)cc(C(C)(C)C#N)c2)CC1 [Example 15, (R)-2-(3-((6-(3-(3,5-difluorophenyl)isoxazolidin-2-yl)pyrimidin-4-yl)amino)-5-(4-methylpiperazin-1-yl)phenyl)-2-methylpropanenitrile]

GI50 [8]: < 50 nM
GI50 [1]: < 50 nM
GI50 [5]: < 50 nM
GI50 [6]: < 50 nM
GI50 [7]: 50 to 500 nM
Compound: COc1cc(Nc2cc(N3OCC[C@@H]3c3ccccc3)ncn2)ccc1N1CCC(N2CCN(C)CC2)CC1 [Example 4, (R)—N-(3-methoxy-4-(4-(4-methylpiperazin-1-yl)piperidin-1-yl)phenyl)-6-(3-phenylisoxazolidin-2-yl)pyrimidin-4-amine]

GI50 [8]: 50 to 500 nM
GI50 [6]: 50 to 500 nM
Compound: CN1CCN(C2CCN(c3cc(Nc4cc(N5OCC[C@@H]5c5cc(F)cc(F)c5)ncn4)cc(S(C)(=O)=O)c3)CC2)CC1 [Example 11, (R)-6-(3-(3,5-difluorophenyl)isoxazolidin-2-yl)-N-(3-(4-(4-methylpiperazin-1-yl)piperidin-1-yl)-5-(methylsulfonyl)phenyl)pyrimidin-4-amine]

GI50 [8]: 50 to 500 nM
GI50 [6]: 50 to 500 nM
Compound: CN1CCN(c2cc(Nc3cc(N4OCC[C@@H]4c4cc(F)cc(F)c4)ncn3)cc(S(C)(=O)=O)c2)CC1 [Example 13, (R)-6-(3-(3,5-difluorophenyl)isoxazolidin-2-yl)-N-(3-(4-methylpiperazin-1-yl)-5-(methylsulfonyl)phenyl)pyrimidin-4-amine]

GI50 [8]: 50 to 500 nM
GI50 [6]: 50 to 500 nM
Compound: COc1cc(N2CCC(N3CCN(C4CC4)CC3)CC2)ccc1Nc1cc(N2OCC[C@@H]2c2cc(F)cc(F)c2)ncn1 [Example 6, (R)—N-(4-(4-(4-cyclopropylpiperazin-1-yl)piperidin-1-yl)-2-methoxyphenyl)-6-(3-(3,5-difluorophenyl)isoxazolidin-2-yl)pyrimidin-4-amine]

GI50 [8]: 50 to 500 nM
GI50 [6]: 50 to 500 nM
Compound: COc1cc(N2CCOCC2)c(-c2cnn(C)c2)cc1Nc1cc(N2OCC[C@@H]2c2cc(F)cc(F)c2)ncn1 [Example 7, (R)-6-(3-(3,5-difluorophenyl)isoxazolidin-2-yl)-N-(2-methoxy-5-(1-methyl-1H-pyrazol-4-yl)-4-morpholinophenyl)pyrimidin-4-amine]

GI50 [8]: < 50 nM
GI50 [6]: < 50 nM
Compound: COc1cc(N2CCC(N3CCN(C)CC3)CC2)ccc1Nc1cc(N2OCC[C@@H]2c2ccccc2)ncn1 [Example 5, (R)—N-(2-methoxy-4-(4-(4-methylpiperazin-1-yl)piperidin-1-yl)phenyl)-6-(3-phenylisoxazolidin-2-yl)pyrimidin-4-amine]
